Results reported in patent US20240254119A1 (THIRD HARMONIC BIO, INC., priority 2022, published 2024).

Biological target: T1, wtKIT (Homo sapiens, UniProt P10721)
T1 construct: 1888289AM in the reaction mixtures
Assay: Caliper biochemical assay, wtKIT
Conditions: Table 6, read-out: KIT Biochemical IC50 avg
Procedure: Enzyme, substrate, and cofactors (ATP and Mn^2+) are combined in a well of a microtiter plate and incubated for 3 hours at 25° C. At the end of the incubation, the reaction is quenched by the addition of an EDTA-containing buffer. Substrate and product are separated electrophoretically using the microfluidic-based LabChip 3000 Drug Discovery System from Caliper Life Sciences* and quantitated by fluorescence intensity.
The substrate used in the CSF-1R and PDGFRα assay is FAM-[…]-CONH2 (FAM is carboxyfluorescein). Peptide should be >95% purity. The substrate for the KIT assay is FAM-[…]-NH2.
• 1. To a well of a 384-well plate add 5 μL of 2× enzyme buffer (or control) • 2. Add 100 nL of 100× compound. • 3. Add 5 μL of 2× substrate buffer. • 4. Incubate plate at 25° C. for 3 hours. • 5. Add 10 uL of […]. • 6. Read plate LabChip 3000 Drug Discovery System
• 3 hours at 25° C. where 100% Inhibitor: No enzyme.
• 100 mM HEPES, pH 7.5 0.1% BSA • 0.01% Triton X-100 • 1 mM DTT • 10 mM MnCl2 • 10 μM Sodium Orthovanadate • 10 μM Beta-Glycerophosphate • 400 μM ATP • 1% DMSO (from compound) • 1 μM FAM-[…]-CONH2 5.0 nM wtKIT Enzyme (1888289AM)* • *Specific activity may vary from lot to lot. Enzyme concentration may need to be adjusted to yield 10-20% conversion of substrate to product.

T1 sequence (P10721 26-976): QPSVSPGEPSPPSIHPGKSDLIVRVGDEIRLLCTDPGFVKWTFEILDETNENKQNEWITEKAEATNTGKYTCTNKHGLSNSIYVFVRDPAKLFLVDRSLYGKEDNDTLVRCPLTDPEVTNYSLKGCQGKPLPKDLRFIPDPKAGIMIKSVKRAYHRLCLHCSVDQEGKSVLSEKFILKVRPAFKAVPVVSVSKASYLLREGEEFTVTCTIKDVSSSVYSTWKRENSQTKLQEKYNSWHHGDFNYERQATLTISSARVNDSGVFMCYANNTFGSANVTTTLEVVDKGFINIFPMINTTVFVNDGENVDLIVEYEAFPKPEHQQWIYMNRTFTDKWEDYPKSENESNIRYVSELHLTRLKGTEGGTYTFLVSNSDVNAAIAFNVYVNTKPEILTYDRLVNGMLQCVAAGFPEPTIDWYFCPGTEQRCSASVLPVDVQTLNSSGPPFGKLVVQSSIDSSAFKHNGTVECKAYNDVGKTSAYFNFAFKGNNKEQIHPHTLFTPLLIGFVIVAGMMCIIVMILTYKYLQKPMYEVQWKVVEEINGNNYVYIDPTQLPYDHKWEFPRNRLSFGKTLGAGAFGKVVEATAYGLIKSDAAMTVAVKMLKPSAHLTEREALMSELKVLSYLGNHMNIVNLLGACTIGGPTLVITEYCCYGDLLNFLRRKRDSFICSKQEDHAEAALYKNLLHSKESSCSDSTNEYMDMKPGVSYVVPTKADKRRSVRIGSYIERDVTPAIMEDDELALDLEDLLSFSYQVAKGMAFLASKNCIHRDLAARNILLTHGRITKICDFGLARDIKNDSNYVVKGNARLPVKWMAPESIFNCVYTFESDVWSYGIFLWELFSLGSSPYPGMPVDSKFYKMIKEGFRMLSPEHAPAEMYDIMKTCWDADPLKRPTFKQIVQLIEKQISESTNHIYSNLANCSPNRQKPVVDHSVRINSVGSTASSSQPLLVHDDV

IC50 [nM] | Structure (SMILES)
≤ 50 | Cc1ccc(-c2noc([C@@H]3CC(=O)N3)n2)cc1NC(=O)c1cnc2ccccn12 (racemic) [Compound I-224]
≤ 50 | Cc1ccc(-c2noc(C3(C)CCCC3(F)F)n2)cc1NC(=O)c1cnc2ccccn12 (racemic) [Compound I-374]
≤ 50 | Cc1nc(-c2ccc(C)c(NC(=O)c3cnc4ccc(N5CCCCC5)cn34)c2)no1 [Compound I-206]
≤ 50 | Cc1ccc(-c2noc([C@H]3C[C@@H]3F)n2)cc1NC(=O)c1cnc2cc(C(N)=O)ccn12 [Compound I-207]
≤ 50 | Cc1nc(-c2ccc(C)c(NC(=O)c3cnc4ccc(N5CCOCC5)cn34)c2)no1 [Compound I-218]
≤ 50 | Cc1ccc(-c2noc([C@H]3CC(=O)CN3)n2)cc1NC(=O)c1cnc2ccccn12 [Compound I-223]
50 to 500 | Cc1ccc(-c2noc([C@H]3C[C@@H]3F)n2)cc1NC(=O)c1cnc2cc(NS(=O)(=O)c3c(C)noc3C)ccn12 [Compound I-226]
≤ 50 | COC(=O)N1CC(c2nc(-c3ccc(C)c(NC(=O)c4cnc5ccc(OC[C@@H](C)O)cn45)c3)no2)C1 [Compound I-227]
≤ 50 | CCNc1ccn2c(C(=O)Nc3cc(-c4noc(C)n4)ccc3C)cnc2c1 [Compound I-229]
50 to 500 | Cc1ccc(-c2noc([C@H]3CCN3S(=O)(=O)c3cccnc3)n2)cc1NC(=O)c1cnc2ccccn12 [Compound I-233]
50 to 500 | COC(=O)N1CC(c2nc(-c3ccc(C)c(NC(=O)c4cnc5ccc(OCC(C)(C)O)cn45)c3)no2)C1 [Compound I-239]
≤ 50 | Cc1ccc(-c2noc(C3CC3F)n2)cc1NC(=O)c1cnc2ccc(Nc3ccc(OC(F)F)cc3)cn12 (centres unmarked) [Compound I-284]
≤ 50 | COc1ccc(Nc2ccn3c(C(=O)Nc4cc(-c5noc([C@H]6C[C@@H]6F)n5)ccc4C)cnc3c2)cc1OC [Compound I-285]

Biological target: T1, wtKIT
Assay: HTRF biochemical assay, wtKIT (phosphorylation of a peptide substrate)
Conditions: Table 4
Method in brief: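 wtKIT (5.0 nM) phosphorylating 1 µM FAM-labelled peptide with 400 µM ATP and 10 mM MnCl2 in 100 mM HEPES pH 7.5, 1% DMSO, 3 h at 25 °C. EDTA quench; phosphopeptide detected with anti-phosphotyrosine antibody by HTRF. Enzyme titrated for 10-20% substrate conversion.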

IC50 [nM] | Structure (SMILES)
50 to 500 | Cc1ccc(-c2noc([C@@H]3CC(=O)N3)n2)cc1NC(=O)c1cnc2ccccn12 (racemic) [Compound I-224]
≤ 50 | Cc1nc(-c2ccc(C)c(NC(=O)c3cnc4ccc(N5CCCCC5)cn34)c2)no1 [Compound I-206]
≤ 50 | Cc1ccc(-c2noc([C@H]3C[C@@H]3F)n2)cc1NC(=O)c1cnc2cc(C(N)=O)ccn12 [Compound I-207]
≤ 50 | Cc1nc(-c2ccc(C)c(NC(=O)c3cnc4ccc(N5CCOCC5)cn34)c2)no1 [Compound I-218]
50 to 500 | Cc1ccc(-c2noc([C@H]3CC(=O)CN3)n2)cc1NC(=O)c1cnc2ccccn12 [Compound I-223]
50 to 500 | Cc1ccc(-c2noc([C@H]3C[C@@H]3F)n2)cc1NC(=O)c1cnc2cc(NS(=O)(=O)c3c(C)noc3C)ccn12 [Compound I-226]
50 to 500 | COC(=O)N1CC(c2nc(-c3ccc(C)c(NC(=O)c4cnc5ccc(OC[C@@H](C)O)cn45)c3)no2)C1 [Compound I-227]
≤ 50 | CCNc1ccn2c(C(=O)Nc3cc(-c4noc(C)n4)ccc3C)cnc2c1 [Compound I-229]
50 to 500 | Cc1ccc(-c2noc([C@H]3CCN3S(=O)(=O)c3cccnc3)n2)cc1NC(=O)c1cnc2ccccn12 [Compound I-233]
50 to 500 | COC(=O)N1CC(c2nc(-c3ccc(C)c(NC(=O)c4cnc5ccc(OCC(C)(C)O)cn45)c3)no2)C1 [Compound I-239]

System: not listed separately
Assay: Kinetic solubility assay
Type: physicochemical
Conditions: kinetic solubility, 50 mM PB (pH 7.4), shaken 24 hours at RT
Procedure: 10 μL of 10 mM in DMSO of test article and control compounds was added into lower chambers of whatman miniuniprep vials, respectively. 490 μL of 50 mM PB (pH 7.4) was then added into lower chambers of the whatman miniuniprep vials, respectively. […] Miniuniprep vials were shaken for 24 hours at RT at the speed of 800 rpm, centrifuged 20 minutes (eg. 4000 rpm) and the filtrates were analyzed by UPLC-UV/HPLC-UV system to calculate the concentration with standard curve.
Filter Membrane: Miniuniprep (PTFE Filter Media with Polypropylene Housing) Cat. No. UN203NPUORG, GE Halthcare Whatman.

Structure (SMILES) | Solubility (μM)
Cc1ccc(-c2noc([C@@H]3CC(=O)N3)n2)cc1NC(=O)c1cnc2ccccn12 (racemic) [Compound I-224] | * (a solubility greater than 50 μM)
Cc1ccc(-c2noc(C3(C)CCCC3(F)F)n2)cc1NC(=O)c1cnc2ccccn12 (racemic) [Compound I-374] | **** (a solubility less than or equal to 2 μM)
Cc1nc(-c2ccc(C)c(NC(=O)c3cnc4ccc(N5CCCCC5)cn34)c2)no1 [Compound I-206] | **** (a solubility less than or equal to 2 μM)
Cc1ccc(-c2noc([C@H]3C[C@@H]3F)n2)cc1NC(=O)c1cnc2cc(C(N)=O)ccn12 [Compound I-207] | **** (a solubility less than or equal to 2 μM)
Cc1nc(-c2ccc(C)c(NC(=O)c3cnc4ccc(N5CCOCC5)cn34)c2)no1 [Compound I-218] | **** (a solubility less than or equal to 2 μM)
Cc1ccc(-c2noc([C@H]3C[C@@H]3F)n2)cc1NC(=O)c1cnc2cc(NS(=O)(=O)c3c(C)noc3C)ccn12 [Compound I-226] | * (a solubility greater than 50 μM)
COC(=O)N1CC(c2nc(-c3ccc(C)c(NC(=O)c4cnc5ccc(OC[C@@H](C)O)cn45)c3)no2)C1 [Compound I-227] | ** (a solubility greater than 10 μM and less than or equal to 50 μM)
CCNc1ccn2c(C(=O)Nc3cc(-c4noc(C)n4)ccc3C)cnc2c1 [Compound I-229] | **** (a solubility less than or equal to 2 μM)
Cc1ccc(-c2noc([C@H]3CCN3S(=O)(=O)c3cccnc3)n2)cc1NC(=O)c1cnc2ccccn12 [Compound I-233] | ** (a solubility greater than 10 μM and less than or equal to 50 μM)
COC(=O)N1CC(c2nc(-c3ccc(C)c(NC(=O)c4cnc5ccc(OCC(C)(C)O)cn45)c3)no2)C1 [Compound I-239] | ** (a solubility greater than 10 μM and less than or equal to 50 μM)
Cc1ccc(-c2noc(C3CC3F)n2)cc1NC(=O)c1cnc2ccc(Nc3ccc(OC(F)F)cc3)cn12 (centres unmarked) [Compound I-284] | *** (a solubility greater than 2 μM and less than or equal to 10 μM)
COc1ccc(Nc2ccn3c(C(=O)Nc4cc(-c5noc([C@H]6C[C@@H]6F)n5)ccc4C)cnc3c2)cc1OC [Compound I-285] | **** (a solubility less than or equal to 2 μM)
